Our source for the MIC and No. of strains values is ChEMBL document CHEMBL1129577, “Identification of a novel oxazolidinone (U-100480) with potent antimycobacterial activity” (1996).

Common to all, as to format: functional
The test system of test [1] is Mycobacterium tuberculosis. The test is described as follows: Compound was evaluated for in vitro anti-mycobacterial activity against Mycobacterium tuberculosis.
For test [2], the system named is Mycobacterium tuberculosis. Description: In vitro anti-mycobacterial activity against multiple sensitive strains of Mycobacterium tuberculosis at 0.125 ug/mL.
In test [3] the test system is Mycobacterium tuberculosis. Description: In vitro anti-mycobacterial activity against multiple sensitive strains of Mycobacterium tuberculosis at 0.50 ug/mL.
For test [4], the system named is Mycobacterium tuberculosis. The test is described as follows: In vitro anti-mycobacterial activity against multiple sensitive strains of Mycobacterium tuberculosis at 2 ug/mL.
The subject of test [5] is Mycobacterium avium. Description: Compound was evaluated for in vitro anti-mycobacterial activity against MAC 101.
Test [6] deals with Mycobacterium avium. The test is described as follows: Compound was evaluated for in vitro anti-mycobacterial activity against Mycobacterium avium complex (MAC) ATCC 49601.
Test [7] relates to Mycolicibacterium fortuitum. Description: Compound was evaluated for in vitro anti-mycobacterial activity against Mycobacterium fortuitum.
The subject of a further test is Mycobacterium malmoense. Description: Compound was evaluated for in vitro anti-mycobacterial activity against Mycobacterium malmoense.
The subject of a further test is Mycobacterium simiae. Description: Compound was evaluated for in vitro anti-mycobacterial activity against Mycobacterium simiae.
The next test relates to Mycobacterium xenopi. The test is described as follows: Compound was evaluated for in vitro anti-mycobacterial activity against Mycobacterium xenopi.
Test [8] relates to Mycobacterium avium. Description: Compound was evaluated for in vitro anti-mycobacterial activity against Mycobacterium avium complex by 50%.
Test [9] concerns Mycobacterium avium. Description: Compound was evaluated for in vitro anti-mycobacterial activity against Mycobacterium avium complex by 90%.
The test system of test [10] is Mycobacterium tuberculosis. Description: In vitro anti-mycobacterial activity against multiple sensitive strains of Mycobacterium tuberculosis at 0.03 ug/mL.
For test [11], the system named is Mycobacterium tuberculosis. The test is described as follows: Compound was evaluated for in vitro anti-mycobacterial activity against Mycobacterium tuberculosis H37Rv.

The structures appear in SMILES notation. Values after ≈ are worked out from the molar mass of the structure shown.

In test [1], `CC(=O)NC[C@H]1CN(c2ccc(N3CC[S+]([O-])CC3)c(F)c2)C(=O)O1` had an MIC of under 0.125 µg/mL.
Take `CC(=O)NC[C@H]1CN(c2ccc(N3CCS(=O)(=O)CC3)c(F)c2)C(=O)O1`: the No. of strains is on record as 1 in test [2], 4 in test [3] and 1 in [4].
Turning to `CC[C@H]1OC(=O)[C@H](C)[C@@H](O[C@H]2C[C@@](C)(OC)[C@@H](O)[C@H](C)O2)[C@H](C)[C@@H](O[C@@H]2O[C@H](C)C[C@H](N(C)C)[C@H]2O)[C@](C)(O)C[C@@H](C)CN(C)[C@H](C)[C@@H](O)[C@]1(C)O` [AZITHROMYCIN], the MIC was 4 µg/mL (≈ 5.34 µM) against Mycobacterium avium [5]; 4 µg/mL (≈ 5.34 µM) against Mycobacterium avium [6]; over 64 µg/mL in test [7]; 16 µg/mL (≈ 21.4 µM) against Mycobacterium malmoense; 4 µg/mL (≈ 5.34 µM) against Mycobacterium simiae; 1 µg/mL (≈ 1.34 µM) against Mycobacterium xenopi.
Regarding `NNC(=O)c1ccncc1` [ISONIAZID], it took 0.2 µg/mL (≈ 1.46 µM) to inhibit growth in test [1] (MIC).
Take `CC(=O)NC[C@H]1CN(c2ccc(N3CCSCC3)c(F)c2)C(=O)O1` [SUTEZOLID]: the minimal inhibitory concentration (MIC) with Mycobacterium avium [5] came out at 0.5 µg/mL (≈ 1.41 µM); with Mycobacterium avium [6] it was 4 µg/mL (≈ 11.3 µM); with Mycobacterium avium [8], 2 µg/mL (≈ 5.66 µM); against Mycobacterium avium [9], 4 µg/mL (≈ 11.3 µM); in test [7] it was 8 µg/mL (≈ 22.6 µM); in the test with Mycobacterium malmoense, 2 µg/mL (≈ 5.66 µM). Besides, the values for the MIC (in test [11]; against Mycobacterium simiae; against Mycobacterium xenopi) were under 0.125 µg/mL, 2 µg/mL (≈ 5.66 µM) and 2 µg/mL (≈ 5.66 µM), respectively. The No. of strains in test [10] turned out to be 1; in test [2] it was 2; in test [3], 2.

As a reminder, the MIC is the smallest concentration in the dilution series that meets the test's criterion for growth inhibition.
